Columns and labels:
Assay in all cases: relative viability (nuclei count vs DMSO), 5 days (fraction); higher = more cells survive
Bemcentinib + Lapatinib = compound: Nc1nc(Nc2ccc3c(c2)CC[C@@H](N2CCCC2)CC3)nn1-c1cc2c(nn1)-c1ccccc1CCC2 [Bemcentinib] + CS(=O)(=O)CCNCc1ccc(-c2ccc3ncnc(Nc4ccc(OCc5cccc(F)c5)c(Cl)c4)c3c2)o1 [Lapatinib] (partner 2 µM)
How it was run: (§1)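 Five library-drug doses in √10 steps were combined with a fixed anchor-drug dose, or a single drug was given alone, by pin tool to lung cancer cell lines in 1536-well plates the day after seeding. Nuclei were stained and counted after 5 days. Relative viability is the nuclei count in treated wells over that in vehicle wells, taken as the median of duplicate plates.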

Axitinib + Navitoclax = compound: CNC(=O)c1ccccc1Sc1ccc2c(/C=C/c3ccccn3)n[nH]c2c1 [Axitinib] + CC1(C)CCC(c2ccc(Cl)cc2)=C(CN2CCN(c3ccc(C(=O)NS(=O)(=O)c4ccc(N[C@H](CCN5CCOCC5)CSc5ccccc5)c(S(=O)(=O)C(F)(F)F)c4)cc3)CC2)C1 [Navitoclax] (partner 0.5 µM)
How it was run: as §1

Bemcentinib + Luminespib = compound: Nc1nc(Nc2ccc3c(c2)CC[C@@H](N2CCCC2)CC3)nn1-c1cc2c(nn1)-c1ccccc1CCC2 [Bemcentinib] + CCNC(=O)c1noc(-c2cc(C(C)C)c(O)cc2O)c1-c1ccc(CN2CCOCC2)cc1 [Luminespib] (partner 0.01 µM)
How it was run: as §1

[1] = compound: Nc1nc(Nc2ccc3c(c2)CC[C@@H](N2CCCC2)CC3)nn1-c1cc2c(nn1)-c1ccccc1CCC2 [Bemcentinib] + CC(=O)c1c(C)c2cnc(Nc3ccc(N4CCNCC4)cn3)nc2n(C2CCCC2)c1=O [Palbociclib] (partner 0.5 µM)
How it was run: as §1

Cell Line	relative viability (Bemcentinib + Lapatinib; first compound 0.04 µM)	relative viability (Bemcentinib + Lapatinib; first compound 0.1265 µM)	relative viability (Bemcentinib + Lapatinib; first compound 0.4 µM)	relative viability (Bemcentinib + Lapatinib; first compound 1.265 µM)	relative viability (Bemcentinib + Lapatinib; first compound 4 µM)	relative viability (Axitinib + Navitoclax; first compound 0.005 µM)	relative viability (Axitinib + Navitoclax; first compound 0.01581 µM)	relative viability (Axitinib + Navitoclax; first compound 0.05 µM)	relative viability (Axitinib + Navitoclax; first compound 0.1581 µM)	relative viability (Axitinib + Navitoclax; first compound 0.5 µM)	relative viability (Bemcentinib + Luminespib; first compound 0.04 µM)	relative viability (Bemcentinib + Luminespib; first compound 0.1265 µM)	relative viability (Bemcentinib + Luminespib; first compound 0.4 µM)	relative viability (Bemcentinib + Luminespib; first compound 1.265 µM)	relative viability (Bemcentinib + Luminespib; first compound 4 µM)	relative viability ([1]; first compound 0.04 µM)	relative viability ([1]; first compound 0.1265 µM)	relative viability ([1]; first compound 0.4 µM)	relative viability ([1]; first compound 1.265 µM)	relative viability ([1]; first compound 4 µM)
201T	1	1.02	1.02	1.03	1.06	1.21	1.18	1.18	1.27	1.23	1.07	1.05	1.14	1.07	1.14	0.333	0.314	0.392	0.363	0.389
A549	0.954	0.999	1.14	0.956	1.02	1.19	1.24	1.25	1.13	1.18										
A-427		0.959	1.06	1.09	1.03	0.999	1.05	0.925	0.958	1.04	1.04	1.09	0.934	0.822	0.737	0.55	0.515	0.534	0.532	0.532
ABC-1	1.33	1.36	1.33	0.998	1.26						0.456	0.682	0.801	1.02	0.741	0.532	0.825	0.654	0.655	0.639
BEN	0.488	0.844	0.807	0.531	0.734	0.074	0.0723	0.0728	0.0721	0.0571	0.178	0.395	0.563	0.199	0.236	0.488	0.498	0.464	0.432	0.514
CAL-12T	0.556	0.598	0.599	0.597	0.652	1.29	1.47	1.15	1.19	1.45	0.273	0.462	0.388	0.363	0.453	0.3	0.59	0.47	0.489	0.45
COR-L23	1.18	0.997	1.14	1.05	1.02	0.948	0.983	1.15	1.07	1.15	0.628	0.903	0.807	0.827	0.913	0.304	0.316	0.275	0.382	0.31
COR-L 105	0.311	0.327	0.416	0.338	0.394	1	0.828	0.795	0.65	1.07	0.741	0.839	0.893	0.704	0.783	0.385	0.381	0.412	0.377	0.396
Calu-6	1.02	1.25	1.34	1.13	1.11	0.923	0.87	0.751	0.885	0.929										
ChaGo-K-1						1.07	0.779	1.13	0.921	0.895	0.573	0.542	0.701	0.843	0.587	0.963	0.953	1.02	0.954	0.938
EBC-1	0.203	0.189	0.302	0.204	0.221	0.468	0.443	0.453	0.509	0.554										
EKVX	0.186	0.218	0.199	0.213	0.196	1.07	0.962	0.823	0.921	0.961	0.825	0.878	0.923	0.838	0.863	0.333	0.362	0.427	0.427	0.405
EMC-BAC-2	0.917	0.959	0.957	0.878	0.898	1.27	1.12	1.16	1.16	1.27	1.24	1.29	1.16	1.19	1.2	0.519	0.556	0.507	0.513	0.519
EPLC-272H		0.958	1.01	0.962	1.02	1.19	1.11	1.09	1.18	1.09	0.25	0.658	0.279	0.353	0.318	0.287	0.309	0.361	0.302	0.34
H3255	0.222	0.352	0.229	0.237	0.191	0.617	0.377	0.354	0.476	0.561	0.745	1.07	0.793	0.777	0.747	0.283	0.305	0.297	0.275	0.334
HARA	0.668	0.928	0.788	0.865	0.469	0.979	1.08	1.14	1.08	1.19	0.603	0.983	0.719	1.03	0.597	0.211	0.252	0.215	0.314	0.243
HCC-15	0.883	0.954	0.884	0.895	0.903	0.763	0.699	0.727	0.706	0.78	0.326	0.485	0.293	0.253	0.235	0.767	0.976	0.739	0.728	0.737
HCC-44	1.06	1.07	1.14	1.1	1.06	1.04	1.06	0.99	0.939	1.12	1.05	1.4	1.02	1.06	1.05	1.02	1.03	0.96	1.01	1.1

Cell Line	relative viability (Bemcentinib + Lapatinib; first compound 0.04 µM)	relative viability (Bemcentinib + Lapatinib; first compound 0.1265 µM)	relative viability (Bemcentinib + Lapatinib; first compound 0.4 µM)	relative viability (Bemcentinib + Lapatinib; first compound 1.265 µM)	relative viability (Bemcentinib + Lapatinib; first compound 4 µM)	relative viability (Axitinib + Navitoclax; first compound 0.005 µM)	relative viability (Axitinib + Navitoclax; first compound 0.01581 µM)	relative viability (Axitinib + Navitoclax; first compound 0.05 µM)	relative viability (Axitinib + Navitoclax; first compound 0.1581 µM)	relative viability (Axitinib + Navitoclax; first compound 0.5 µM)	relative viability (Bemcentinib + Luminespib; first compound 0.04 µM)	relative viability (Bemcentinib + Luminespib; first compound 0.1265 µM)	relative viability (Bemcentinib + Luminespib; first compound 0.4 µM)	relative viability (Bemcentinib + Luminespib; first compound 1.265 µM)	relative viability (Bemcentinib + Luminespib; first compound 4 µM)	relative viability ([1]; first compound 0.04 µM)	relative viability ([1]; first compound 0.1265 µM)	relative viability ([1]; first compound 0.4 µM)	relative viability ([1]; first compound 1.265 µM)	relative viability ([1]; first compound 4 µM)
HCC-78	0.113	0.443	0.693	0.281	0.0037	0.873	0.842	0.727	0.754	0.737						0.461	0.455	0.438	0.409	0.48
HCC-366	0.994	1.16	1.51	1.06	1.03	1.07	1.03	1.01	1.06	1.15						0.398	0.508	0.528	0.443	0.519
HCC-827	0.179	0.206	0.216	0.226	0.194	0.971	0.959	0.998	1.02	1	0.689	0.6	0.624	0.742	0.589	0.529	0.537	0.461	0.526	0.471
IA-LM	0.661	0.814	1.13	0.832	0.775	0.88	0.79	0.944	0.823	0.829										
LCLC-103H											1.06	1.15	0.94	1.11	0.899	0.459	0.438	0.522	0.497	0.554
NCI-H358	0.496	0.415	0.373	0.531	0.464						0.319	0.335	0.303	0.247	0.369	0.135	0.143	0.143	0.137	0.135
NCI-H441						0.521	1	0.727	0.754	0.994	0.354	0.485	0.303	0.469	0.321	0.197	0.202	0.227	0.195	0.223
NCI-H522											0.95	1.15	1.16	1.21	1.06	0.834	1.04	1.07	1.1	0.915
NCI-H596	1.07	1.13	1.09	1.09	1.09	0.979	0.859	1.04	0.847	0.969	0.893	1.12	1.23	1.27	1.09					
NCI-H661	0.484	0.431	0.491	0.567	0.469						0.87	0.961	0.895	0.963	0.987	0.384	0.385	0.439	0.375	0.382
NCI-H1299	0.991	0.995	0.962	0.938	0.978	1.14	1.04	1.07	1.04	1.07										
NCI-H1563	0.907	0.887	1.04	0.976	0.958						0.507	0.538	0.475	0.55	0.535					
NCI-H1623											0.498	0.547	0.588	0.481	0.467					
NCI-H1648																0.255	0.236	0.276	0.297	0.291
NCI-H1703		1.18	1.24	1.17	1.13	0.868	0.36	0.306	0.212	0.305										
NCI-H2342											0.689	0.762	0.679	0.83	0.794	0.605	0.614	0.562	0.575	0.529
SW 900											0.169	0.203	0.174	0.156	0.17	0.58	0.594	0.518	0.538	0.591

Reference: the supplement of paper PMC10307832
